From patent publication US20020115640A1, “Farnesyltransferase inhibitors” (priority 2000, published 2002)

Molecular target: T1, farnesyltransferase (Rattus norvegicus, UniProt Q02293+Q04631)
T1 construct: The enzyme can be purified according to Cell, 62: 81-88 (1990), utilizing steps one, two, and three; from tissue; host or cells: rat brain
Assay: Inhibition of farnesyltransferase (3H-farnesyldiphosphate / H-Ras filter assay)
Assay type: biochemical
Conditions: 3H-farnesyldiphosphate 0.6 μM, H-Ras 5.0 μM, 37° C., 30 minutes; for inhibition at 0.1 µM: test compound at 10^−7 M
Source text: The ability of the compounds of the present invention to inhibit farnesyltransferase can be measured according to the method described in J. Biol. Chem., 266: 14603 (1991) or J. Biol. Chem., 270:660-664 (1995). Procedures for determination of the inhibition of farnesylation of the oncogene protein Ras are described in J. Biol. Chem., 266:15575-15578 (1991) and U.S. Pat. No. 5,245,061. Inhibition of rat brain farnesyltransferase can also be measured in vitro using an Amersham Life Science commercial scintillation proximity assay kit and substituting a biotin-K Ras B fragment (0.1 μM final concentration) for the biotin-lamin substrate provided by Amersham. The enzyme can be purified according to Cell, 62: 81-88 (1990), utilizing steps one, two, and three. […] The percent inhibition of the farnesylation caused by the compounds of the present invention (at 10^−6 M) compared to an uninhibited control sample can be evaluated in the same Amersham test system.
The mixture was brought to 37° C., treated with enzyme, incubated for 30 minutes, treated with 1 M HCl/ethanol (1 mL) to stop the reaction, stirred for 15 minutes at room temperature, diluted with ethanol (2 mL), filtered through a 2.5 cm glass microfiber filter (Whatman) with ethanol rinses (4×2 mL). The glass transferred to a scintillation vial and treated with scintillation fluid (5 mL). The radioisotope retained on the glass fiber filter was counted and reflected the activity of the enzyme.

T1 sequence (Q02293 whole entry, one chain of several): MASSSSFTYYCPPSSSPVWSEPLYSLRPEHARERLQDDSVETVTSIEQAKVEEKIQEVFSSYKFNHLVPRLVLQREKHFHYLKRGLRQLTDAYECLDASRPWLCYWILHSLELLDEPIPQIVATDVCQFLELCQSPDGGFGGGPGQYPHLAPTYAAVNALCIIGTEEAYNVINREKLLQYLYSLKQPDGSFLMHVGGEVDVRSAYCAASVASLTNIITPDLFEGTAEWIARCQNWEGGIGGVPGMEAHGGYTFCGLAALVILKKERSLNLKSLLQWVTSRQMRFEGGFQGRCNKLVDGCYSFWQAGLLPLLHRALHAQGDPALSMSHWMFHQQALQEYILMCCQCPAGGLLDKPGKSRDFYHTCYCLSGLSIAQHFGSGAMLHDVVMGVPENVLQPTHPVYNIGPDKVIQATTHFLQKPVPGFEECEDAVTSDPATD

Row | inhibition at 0.1 µM [%] | SMILES | further results
1 | 10 | Cn1cncc1C(NC(=O)c1cn(C)c(=O)cc1-c1cccc(Cl)c1)c1ccc(C#N)cc1 (stereo not drawn) [Example 41, 4-(3-chlorophenyl)-N-((4-cyanophenyl)(1-methyl-1H-imidazol-5-yl)methyl)-1-methyl-6-oxo-1,6-dihydro-3-pyridinecarboxamide] | –
2 | 87 | Cn1cncc1C(OCc1cc(=O)c(C#N)cn1-c1cccc(Cl)c1)c1ccc(C#N)cc1 (stereo not drawn) [Example 42, 1-(3-chlorophenyl)-6-(((4-cyanophenyl)(1-methyl-1H-imidazol-5-yl)methoxy)methyl)-4-oxo-1,4-dihydro-3-pyridinecarbonitrile] | –
3 | 89 | Cn1cncc1C(OCc1c[nH]c(=O)cc1-c1cccc(Cl)c1)c1ccc(C#N)cc1 (stereo not drawn) [Example 44, 4-(((4-(3-chlorophenyl)-6-oxo-1,6-dihydro-3-pyridinyl)methoxy)(1-methyl-1H-imidazol-5-yl)methyl)benzonitrile] | –
4 | 87 | Cn1cncc1C(OCc1cn(C)c(=O)cc1-c1cccc(Cl)c1)c1ccc(C#N)cc1 (stereo not drawn) [Example 45, 4-(((4-(3-chlorophenyl)-1-methyl-6-oxo-1,6-dihydro-3-pyridinyl)methoxy)(1-methyl-1H-imidazol-5-yl)methyl)benzonitrile] | –
5 | 100 | Cn1cncc1C(OCc1ccc(C#N)cc1NS(=O)(=O)c1cccs1)c1ccc(C#N)cc1 (stereo not drawn) [Example 46, N-(5-cyano-2-(((4-cyanophenyl)(1-methyl-1H-imidazol-5-yl)methoxy)methyl)phenyl)-2-thiophenesulfonamide] | –
6 | 100 | Cc1ccc(S(=O)(=O)Nc2cc(C#N)ccc2COC(c2ccc(C#N)cc2)c2cncn2C)cc1 (stereo not drawn) [Example 47, N-(5-cyano-2-(((4-cyanophenyl)(1-methyl-1H-imidazol-5-yl)methoxy)methyl)phenyl)-4-methylbenzenesulfonamide] | –
7 | 100 | Cn1cncc1C(OCc1c(-c2cccc(Cl)c2)cc(C#N)c(=O)n1C)c1ccc(C#N)c(F)c1 (stereo not drawn) [Example 52, 5-(3-chlorophenyl)-6-(((4-cyano-3-fluorophenyl)(1-methyl-1H-imidazol-5-yl)methoxy)methyl)-1-methyl-2-oxo-1,2-dihydro-3-pyridinecarbonitrile] | –
8 | 100 | Cn1cncc1C(OCc1c(-c2cccc(Cl)c2)cc(C#N)c(=O)n1C)c1ccc(C#N)cc1F (stereo not drawn) [Example 53, 5-(3-chlorophenyl)-6-(((4-cyano-2-fluorophenyl)(1-methyl-1H-imidazol-5-yl)methoxy)methyl)-1-methyl-2-oxo-1,2-dihydro-3-pyridinecarbonitrile] | –
9 | 100 | Cn1cncc1C(OCc1c(-c2cccc(Cl)c2)cc(C#N)c(=O)n1C)c1ccc(C#N)c(Cl)c1 (stereo not drawn) [Example 54, 6-(((3-chloro-4-cyanophenyl)(1-methyl-1H-imidazol-5-yl)methoxy)methyl)-5-(3-chlorophenyl)-1-methyl-2-oxo-1,2-dihydro-3-pyridinecarbonitrile] | –

More lines, now with the values behind:

Row | SMILES | inhibition at 0.1 µM [%] | further results
10 | Cn1cncc1C(OCc1ccc(Cl)cc1-c1ccc(Cl)c(Cl)c1)c1ccc(C#N)cc1 (stereo not drawn) [Example 28, 4-((1-methyl-1H-imidazol-5-yl)((3′,4′,5-trichloro(1,1′-biphenyl)-2-yl)methoxy)methyl)benzonitrile] | > 85 | –
11 | Cn1cncc1C(OCc1ccc(Cl)cc1-c1ccc(C=O)s1)c1ccc(C#N)cc1 (stereo not drawn) [Example 29, 4-(((4-chloro-2-(5-formyl-2-thienyl)benzyl)oxy)(1-methyl-1H-imidazol-5-yl)methyl)benzonitrile] | 92 | –
12 | Cn1cncc1C(OCc1ccc(Cl)cc1-c1cccc(C=O)c1)c1ccc(C#N)cc1 (stereo not drawn) [Example 30, 4-(((5-chloro-3′-formyl(1,1′-biphenyl)-2-yl)methoxy)(1-methyl-1H-imidazol-5-yl)methyl)benzonitrile] | 92 | –
13 | CCOc1cccc(-c2cc(C#N)ccc2COC(c2ccc(C#N)cc2)c2cncn2C)c1 (stereo not drawn) [Example 32, 6-(((4-cyanophenyl)(1-methyl-1H-imidazol-5-yl)methoxy)methyl)-3′-ethoxy(1,1′-biphenyl)-3-carbonitrile] | > 98 | –
14 | Cn1cncc1C(OCc1ccc(C#N)cc1-c1ccc2c(c1)OCO2)c1ccc(C#N)cc1 (stereo not drawn) [Example 33, 3-(1,3-benzodioxol-5-yl)-4-(((4-cyanophenyl)(1-methyl-1H-imidazol-5-yl)methoxy)methyl)benzonitrile] | > 98 | –
15 | Cn1cncc1C(OCc1ccc(C#N)cc1-c1cccc(Cl)c1)c1ccc(C#N)cc1 (stereo not drawn) [Example 34, 3′-chloro-6-(((4-cyanophenyl)(1-methyl-1H-imidazol-5-yl)methoxy)methyl)(1,1′-biphenyl)-3-carbonitrile] | > 97 | –
16 | Cn1cncc1C(OCc1ccc(Cl)nc1-c1cccc(Cl)c1)c1ccc(C#N)cc1 (stereo not drawn) [Example 35, 4-(((6-chloro-2-(3-chlorophenyl)-3-pyridinyl)methoxy)(1-methyl-1H-imidazol-5-yl)methyl)benzonitrile] | 96 | –
17 | Cc1ccc(COC(c2ccc(C#N)cc2)c2cncn2C)c(-c2cccc(Cl)c2)n1 (stereo not drawn) [Example 36, 4-(((2-(3-chlorophenyl)-6-methyl-3-pyridinyl)methoxy)(1-methyl-1H-imidazol-5-yl)methyl)benzonitrile] | 70 | –
18 | Cn1cncc1C(O)(C#Cc1ccc(Cl)cc1-c1cccc(Cl)c1)c1ccc(C#N)cc1 (stereo not drawn) [Example 37, 4-(3-(3′,5-dichloro(1,1′-biphenyl)-2-yl)-1-hydroxy-1-(1-methyl-1H-imidazol-5-yl)-2-propynyl)benzonitrile] | > 96 | –
19 | Cn1cncc1C(OCc1cnc(F)cc1-c1cccc(Cl)c1)c1ccc(C#N)cc1 (stereo not drawn) [Example 38, 4-(((4-(3-chlorophenyl)-6-fluoro-3-pyridinyl)methoxy)(1-methyl-1H-imidazol-5-yl)methyl)benzonitrile] | 80 | –
20 | COc1cc(-c2cccc(Cl)c2)c(COC(c2ccc(C#N)cc2)c2cncn2C)cn1 (stereo not drawn) [Example 39, 4-(((4-(3-chlorophenyl)-6-methoxy-3-pyridinyl)methoxy)(1-methyl-1H-imidazol-5-yl)methyl)benzonitrile] | 74 | –
21 | Cn1cncc1C(OCc1cnc(C#N)cc1-c1cccc(Cl)c1)c1ccc(C#N)cc1 (stereo not drawn) [Example 40, 4-(3-chlorophenyl)-5-(((4-cyanophenyl)(1-methyl-1H-imidazol-5-yl)methoxy)methyl)-2-pyridinecarbonitrile] | > 83 | –
22 | Cn1cncc1C(O)(COc1ccc(C#N)cc1-c1ccc2c(c1)OCO2)c1ccc(C#N)cc1 (stereo not drawn) [Example 55, 3-(1,3-benzodioxol-5-yl)-4-(2-(4-cyanophenyl)-2-hydroxy-2-(1-methyl-1H-imidazol-5-yl)ethoxy)benzonitrile] | – | inhibition at 0.01 µM (test compound at 10^−8 M): 98%
23 | Cn1cncc1C(F)(COc1ccc(C#N)cc1-c1ccc2c(c1)OCO2)c1ccc(C#N)cc1 (stereo not drawn) [Example 56, 3-(1,3-benzodioxol-5-yl)-4-(2-(4-cyanophenyl)-2-fluoro-2-(1-methyl-1H-imidazol-5-yl)ethoxy)benzonitrile] | – | inhibition at 0.01 µM (test compound at 10^−8 M): 97%
24 | COc1cccc(-c2cc(C#N)ccc2OCC(O)(c2ccc(C#N)cc2)c2cncn2C)c1 (stereo not drawn) [Example 57, 6-(2-(4-cyanophenyl)-2-hydroxy-2-(1-methyl-1H-imidazol-5-yl)ethoxy)-3′-methoxy-1,1′-biphenyl-3-carbonitrile] | – | inhibition at 0.01 µM (test compound at 10^−8 M): 98%
25 | Cn1cncc1C(O)(COc1ccc(C#N)cc1-c1cccc2cccnc12)c1ccc(C#N)cc1 (stereo not drawn) [Example 59, 4-(2-(4-cyanophenyl)-2-hydroxy-2-(1-methyl-1H-imidazol-5-yl)ethoxy)-3-quinolin-8-ylbenzonitrile] | – | inhibition at 0.01 µM (test compound at 10^−8 M): 83%
26 | Cn1cncc1C(F)(COc1ccc(C#N)cc1-c1cccc2cccnc12)c1ccc(C#N)cc1 (stereo not drawn) [Example 60, 4-(2-(4-cyanophenyl)-2-fluoro-2-(1-methyl-1H-imidazol-5-yl)ethoxy)-3-quinolin-8-ylbenzonitrile] | – | inhibition at 0.01 µM (test compound at 10^−8 M): 73%
27 | Cn1cncc1C(O)(COc1ccc(C#N)cc1-c1ccc(F)c(F)c1)c1ccc(C#N)cc1 (stereo not drawn) [Example 61, 6-(2-(4-cyanophenyl)-2-hydroxy-2-(1-methyl-1H-imidazol-5-yl)ethoxy)-3′,4′-difluoro-1,1′-biphenyl-3-carbonitrile] | – | inhibition at 0.01 µM (test compound at 10^−8 M): 96%
28 | Cn1cncc1C(F)(COc1ccc(C#N)cc1-c1ccc(F)c(F)c1)c1ccc(C#N)cc1 (stereo not drawn) [Example 62, 6-(2-(4-cyanophenyl)-2-fluoro-2-(1-methyl-1H-imidazol-5-yl)ethoxy)-3′,4′-difluoro-1,1′-biphenyl-3-carbonitrile] | – | inhibition at 0.01 µM (test compound at 10^−8 M): 93%
29 | Cn1cncc1C(O)(COc1ccc(C#N)cc1-c1ccc(OC(F)(F)F)cc1)c1ccc(C#N)cc1 (stereo not drawn) [Example 63, 6-(2-(4-cyanophenyl)-2-hydroxy-2-(1-methyl-1H-imidazol-5-yl)ethoxy)-4′-(trifluoromethoxy)-1,1′-biphenyl-3-carbonitrile] | – | % Inhibition at 10^−8 M (test compound at 10^−8 M): 97%
30 | Cn1cncc1C(F)(COc1ccc(C#N)cc1-c1ccc(OC(F)(F)F)cc1)c1ccc(C#N)cc1 (stereo not drawn) [Example 64, 6-(2-(4-cyanophenyl)-2-fluoro-2-(1-methyl-1H-imidazol-5-yl)ethoxy)-4′-(trifluoromethoxy)-1,1′-biphenyl-3-carbonitrile] | – | inhibition at 0.01 µM (test compound at 10^−8 M): 90%
